# Laboratory results: ChEMBL document CHEMBL1126274, “Mapping the binding site of tissue kallikrein: preparation and testing of all possible substrate analog inhibitors homologous with the sequence of kininogen between Ser386 and Gln392” (J Med Chem, 1992)
# Residues, ends and D or L forms follow the SMILES beside them.
# Target: T1, Kallikrein 1 (Sus scrofa) (UniProt O97506)
# T1 sequence (whole entry): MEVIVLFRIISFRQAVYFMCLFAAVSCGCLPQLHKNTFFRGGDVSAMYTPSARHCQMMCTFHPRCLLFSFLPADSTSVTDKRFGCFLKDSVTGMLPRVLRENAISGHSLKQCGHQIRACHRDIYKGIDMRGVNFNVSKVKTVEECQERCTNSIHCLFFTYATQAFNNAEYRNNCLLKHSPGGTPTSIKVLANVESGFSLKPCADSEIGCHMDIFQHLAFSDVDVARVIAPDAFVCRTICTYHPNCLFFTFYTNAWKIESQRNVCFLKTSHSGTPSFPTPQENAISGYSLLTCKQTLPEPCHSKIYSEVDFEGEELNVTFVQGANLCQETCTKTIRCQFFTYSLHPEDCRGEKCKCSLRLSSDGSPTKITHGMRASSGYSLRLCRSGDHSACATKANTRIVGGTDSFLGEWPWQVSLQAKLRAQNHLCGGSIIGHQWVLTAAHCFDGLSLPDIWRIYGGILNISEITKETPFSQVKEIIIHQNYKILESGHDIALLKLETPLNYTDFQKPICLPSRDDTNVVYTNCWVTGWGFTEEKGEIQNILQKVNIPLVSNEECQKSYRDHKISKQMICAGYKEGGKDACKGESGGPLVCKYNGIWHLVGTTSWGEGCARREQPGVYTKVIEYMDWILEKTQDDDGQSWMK
# Test: Compound was evaluated for inhibitory activity against beta-kallikrein; No inhibition at 20 mM concentration
row,inhibition,Compound
1,No inhibition,CC(=O)N[C@@H](CO)C(=O)N[C@H](C(=O)N[C@@H](CCC(N)=O)C(N)=O)C(C)C (Ac-Ser-Val-Gln-NH2)

# Target: T1, Kallikrein 1 (Sus scrofa)
# Test: Compound was evaluated for inhibitory activity against beta-kallikrein; No inhibition at 1 mM concentration
row,inhibition,Compound
1,No inhibition,CC(=O)N1CCC[C@H]1C(=O)N[C@@H](Cc1ccccc1)C(N)=O (Ac-Pro-Phe-NH2)
2,No inhibition,CC(=O)N[C@@H](Cc1ccccc1)C(=O)N[C@@H](CCCN=C(N)N)C(N)=O (Ac-Phe-Arg-NH2)

# Target: T1, Kallikrein 1 (Sus scrofa)
# Test: Compound was evaluated for inhibitory activity against beta-kallikrein; No inhibition at 28 mM concentration
row,inhibition,Compound
1,No inhibition,CC(=O)N[C@H](C(=O)N[C@@H](CCC(N)=O)C(N)=O)C(C)C (Ac-Val-Gln-NH2)

# Target: T2, Glandular kallikrein (Sus scrofa, UniProt P00752)
# T2 sequence (P00752 whole entry): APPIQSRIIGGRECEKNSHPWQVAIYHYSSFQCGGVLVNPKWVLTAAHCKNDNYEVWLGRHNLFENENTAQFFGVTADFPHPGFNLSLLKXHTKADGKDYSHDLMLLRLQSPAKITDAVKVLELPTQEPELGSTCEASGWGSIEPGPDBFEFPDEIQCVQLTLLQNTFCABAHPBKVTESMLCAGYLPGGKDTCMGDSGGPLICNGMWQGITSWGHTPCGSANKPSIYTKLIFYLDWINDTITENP
# Test: Inhibitory activity against beta-kallikrein
row,Compound,Ki [µM]
1,CC(=O)N[C@@H](CCCNC(=N)N)C(=O)N[C@@H](CO)C(=O)N[C@H](C(=O)N[C@@H](CCC(N)=O)C(N)=O)C(C)C (Ac-RSVQ-NH2),950
2,Ac-SPFRSV-NH2,135
3,Ac-PFRSVQ-NH2,167
4,CC(=O)N[C@@H](Cc1ccccc1)C(=O)N[C@@H](CCCNC(=N)N)C(=O)N[C@@H](CO)C(=O)N[C@H](C(N)=O)C(C)C (Ac-FRSV-NH2),479
5,CC(=O)N1CCC[C@H]1C(=O)N[C@@H](Cc1ccccc1)C(=O)N[C@@H](CCCN=C(N)N)C(=O)N[C@@H](CO)C(N)=O (Ac-PFRS-NH2),578
6,CC(=O)N[C@@H](CO)C(=O)N1CCC[C@H]1C(=O)N[C@@H](Cc1ccccc1)C(=O)N[C@@H](CCCN=C(N)N)C(N)=O (Ac-SPFR-NH2),2290

# Now from value to compound:
row,Ki [µM],Compound
1,223,Ac-SPFRS-NH2
2,230,Ac-FRSVQ-NH2
3,101,Ac-SPFRSVQ-NH2
4,718,CC(=O)N[C@@H](Cc1ccccc1)C(=O)N[C@@H](CCCNC(=N)N)C(=O)N[C@@H](CO)C(N)=O (Ac-Phe-Arg-Ser-NH2)
5,266,Ac-PFRSV-NH2

# Target: T1, Kallikrein 1 (Sus scrofa)
# Test: Compound was evaluated for inhibitory activity against beta-kallikrein; No inhibition at 0.5 mM concentration
row,Compound,inhibition
1,CC(=O)N[C@@H](CO)C(=O)N1CCC[C@H]1C(=O)N[C@@H](Cc1ccccc1)C(N)=O (Ac-Ser-Pro-Phe-NH2),No inhibition
2,CC(=O)N[C@@H](CCCN=C(N)N)C(=O)N[C@@H](CO)C(N)=O (Ac-Arg-Ser-NH2),No inhibition
3,CC(=O)N[C@@H](CCCN=C(N)N)C(=O)N[C@@H](CO)C(=O)N[C@H](C(N)=O)C(C)C (Ac-Arg-Ser-Val-NH2),No inhibition

# The next lines start with the values.
row,inhibition,Compound
1,No inhibition,CC(=O)N[C@@H](CO)C(=O)N[C@H](C(N)=O)C(C)C (Ac-Ser-Val-NH2)
2,No inhibition,CC(=O)N1CCC[C@H]1C(=O)N[C@@H](Cc1ccccc1)C(=O)N[C@@H](CCCN=C(N)N)C(N)=O (Ac-Pro-Phe-Arg-NH2)
3,No inhibition,CC(=O)N[C@@H](CO)C(=O)N1CCC[C@H]1C(N)=O (Ac-Ser-Pro-NH2)
